Half-life, elimination half-life and tumor growth data for 3 compounds are collected here from patent publication US20260216361A1, “NANOBODY-DRUG CONJUGATES AND METHODS OF PREPARING THEREOF” (Vanderbilt University, priority 2022, published 2026).

For orientation: half-life means how long it takes for the measured level to halve.

Where two headings read alike, the source gives them in different places.

For data set [1] the following is noted: cited from earlier work.
Data set [2] can be described thus: Pharmacokinetics of Cy5 dye and nanobody-Cy5 conjugates in healthy mice. The format is in vivo, mouse. The note with it: 2 mg/kg I.V., healthy female C57BL/6 mice. Here is the method: Pharmacokinetics and Ex Vivo Imaging Experiments. Healthy (Balb/c or C57BL/6) and EMT6 tumor bearing (Balb/c) mice were injected with 100 μL of Cy5 (either as free dye or as a nanobody conjugate) at a dose of 2 mg/kg intravenously. Blood draws were taken using heparinized capillary tubes (DWK Life Sciences) at discrete time points up to five days after injection. 1 μL of blood was mixed with 50 μL of PBS, centrifuged, and the diluted plasma was collected for analysis. Prescence of Cy5 was determined by fluorescence intensity using a plate reader, with an excitation wavelength of 645 nm and an emission wavelength of 675 nm. Pharmacokinetic analysis was performed in GraphPad Prism (V10) using either a one-phase decay or two-phase decay, in which the reported half-life is the second phase (elimination). Biodistribution studies were performed by excising and weighing hearts, lungs, livers, spleens, kidneys, and tumors. Tissue were washed in 1× PBS and transferred to the stage of the IVIS Lumina Ill (PerkinElmer). Fluorescence (radiant efficiency) was measured with a maximum value of 1.56×10^10, and a minimum of 8.21×10^8, and areas were drawn for organs to generate average radiant efficiency values (per cm^2) using the Living Image software (version 4.5). […] Images were taken on the IVIS and luminescence was quantified as total radiant flux (p/s) for each set of lungs.

Data set [3] deals with EMT6 tumors. Kind of data set: Orthotopic EMT6 breast tumor model. The class given is in vivo, mouse. The note with it: nanobody carriers I.V. 1.25 μg agonist; ICB 100 μg intraperitoneally; Balb/c. Here is the method: Evaluation of Nanobodies in Tumor Models. 6-8-week C57BL/6 mice (The Jackson Laboratory) were inoculated with B16.F10, B16.F10-LUC, or B16.F10-OVA models. For EMT6 models, 6-8 week Balb/C female mice (The Jackson Laboratory) were used. Tumors were generated in B16.F10 and B16.F10-OVA models by subcutaneous injection of 5×10^5 cancer cells, suspended in 100 μL of PBS, at the right flank side of the mouse. B16.F10-LUC inoculations were performed by intravenous (I.V.) injection at a volume of 100 μL and using 1×10^6 cancer cells. EMT6 inoculations were orthotopic and placed at the left-side 4th mammary fat pad at a volume of 100 μL and using […]. When the volume of tumors reached ~75-100 mm^3, mice were treated by I.V. injection of nanobodies or free diABZT compound 3 (using 40% PEG400 as an excipient for free diABZI, Sigma), or intraperitoneal (I.P) injection of commercial anti-PD-L1 IgG (Clone BEO101, Bio X Cell) (100 μL per injection). Tumor volume calculations were calculated using Vtumor=L×W2×0.5, in which Vtumor is tumor volume, L is tumor length, and W is tumor width. Tumor volume, total murine mass, and murine well-being were recorded for the duration of the study. The endpoint for maximum tumor volume (i.e. survival) during studies was 1500 mm^3.

As to serum albumin, the half-life in data set [1] (in mice) is 35 to 40 h.

On to `CC1(C)C(/C=C/C=C/C=C2/N(CCCCCC(=O)NCCC(=O)N3Cc4ccccc4C#Cc4ccccc43)c3ccc(S(=O)(=O)O)cc3C2(C)C)=[N+](CCCS(=O)(=O)[O-])c2ccc(S(=O)(=O)O)cc21` [DBCO-Cy5, reference compound], for which the elimination half-life result in data set [2] was “approximately 5 minutes”.

On to `CCn1nc(C)cc1C(=O)Nc1nc2cc(C(N)=O)cc(OC)c2n1C/C=C/Cn1c(NC(=O)c2cc(C)nn2CC)nc2cc(C(N)=O)cc(OCCCN3CCOCC3)c21` [diABZI, reference compound], for which, in data set [3], the tumor growth entry is “did not confer a therapeutic benefit”. In data set [1] (in vivo), the half-life is listed as ~ 90 minutes.
